Source: US6646009B2, “N-(aryl)-2-arylethenesulfonamides and therapeutic uses thereof” (Temple University — Of Commonwealth System of Higher …, priority 2001, dated 2003)

Assays:
[1] = test system: DU145; assay: GI50 growth inhibition, DU145; format: cell-based
Procedure: (§1) The effect of the N-(aryl)-2-arylethenesulfonamides on normal fibroblasts and on tumor cells was determined by the assay described by Latham et al, Oncogene 12:827-837 (1996). Normal diploid lung human fibroblasts (HFL-1) or tumor cells (prostate, colorectal, breast, glial, pancreatic ovarian or leukemic) were plated in 6-well dishes at a cell density of 1.0×10^5 cells per 35-mm^2 well. The plated cells were treated 24 hours later with various concentrations of N-(aryl)-2-arylethenesulfonamide dissolved in dimethyl sulfoxide (DMSO). The total number of viable cells was determined 96 hours later by trypsinizing the wells and counting the number of viable cells, as determined by trypan blue exclusion, using a hemacytometer. Each compound tested (Exs. 1-17) inhibited cell proliferation when tested at a concentration of 30 micromolar. […] Normal HFL cells were treated with the same compounds under the same conditions of concentration and time.
(§2) A dose response curve was plotted for the tumor growth inhibitory effect of (E)-4-methoxystyryl-N-4-fluorophenyl sulfonamide on the estrogen-unresponsive breast cell line BT-20 (FIG. 1). The GI50 (the concentration of drug resulting in 50% net loss of growth inhibition) was determined as 10 μM. […] The (E)-4-methoxystyryl-N-4-fluorophenyl sulfonamide GI50 for the same compound against the cell lines listed in Table 7 was determined in the same manner.

[2] = test system: PC-3; assay: GI50 growth inhibition, PC-3; format: cell-based; conditions: Homo sapiens; PC-3, Prostate
Procedure: as §1, §2

[3] = test system: LNCAP; assay: GI50 growth inhibition, LNCAP; format: cell-based; conditions: Homo sapiens, Prostate
Procedure: as §1, §2

[4] = test system: DLD-1; assay: GI50 growth inhibition, DLD-1; format: cell-based
Procedure: as §1, §2

[5] = test system: HCT-116; assay: GI50 growth inhibition, HCT-116; format: cell-based; conditions: Homo sapiens; HCT-116, Colo-rectal
Procedure: as §1, §2

[6] = test system: COLO-320; assay: GI50 growth inhibition, COLO-320; format: cell-based; conditions: Homo sapiens; COLO-320, Colo-rectal
Procedure: as §1, §2

[7] = test system: estrogen-unresponsive breast cell line BT-20; assay: GI50 growth inhibition, BT-20; format: cell-based
Procedure: as §1, §2

[8] = test system: SK-br-3; assay: GI50 growth inhibition, SK-br-3; format: cell-based; conditions: Homo sapiens; SK-br-3, Breast
Procedure: as §1, §2

[9] = test system: U87; assay: GI50 growth inhibition, U87; format: cell-based; conditions: Homo sapiens, U-87 MG; U87, Glioblastoma
Procedure: as §1, §2

[10] = test system: MIA-PaCa-2; assay: GI50 growth inhibition, MIA-PaCa-2; format: cell-based; conditions: Homo sapiens; MIA-PaCa-2, Pancreatic
Procedure: as §1, §2

[11] = test system: SK-ov-3; assay: GI50 growth inhibition, SK-ov-3; format: cell-based; conditions: Homo sapiens; SK-ov-3, Ovarian
Procedure: as §1, §2

[12] = test system: CEM; assay: GI50 growth inhibition, CEM; format: cell-based; conditions: Homo sapiens, CCRF-CEM, Leukemic
Procedure: as §1, §2

[13] = test system: normal fibroblast line HFL-1; assay: GI50 growth inhibition, HFL-1; format: cell-based; conditions: Homo sapiens, HFL1; HFL-1, Normal diploid lung
Procedure: as §1, §2

[14] = test system: BT20 cells; assay: Induction of apoptosis: PARP cleavage Western blot, BT20; format: cell-based; conditions: 20 μM, 96 hours
Description: (§3) The caspases and the ICE-family proteases are cysteine proteases which are activated during apoptosis (Patel et al., FASEB 10:587-597, 1996). The cleavage of poly(ADP-ribose) polymerase (PARP), which is a target of caspase-3, apopain, and several other activated proteases, is a widely used and accepted marker for apoptosis (Nicholson et al., Nature 376(6533):37-43, 1995; Lippke et al., J. Biol. Chemistry 271:1825, 1996). For this assay, BT20 cells, an estrogen receptor negative breast carcinoma, and HFL-1 cells, normal lung fibroblasts, were treated with either (E)-4-methoxystyryl-N-4-fluorophenyl sulfonamide at a final concentration of 20 μM or dimethyl sulfoxide (DMSO) for 96 hours. The cells were then lysed in RIPA buffer and 100 μg of total cellular protein from each sample was resolved on a 10% SDS-polyacrylamide gel. The proteins were then Western blotted onto PROTRAN filter paper (S/S) and the filter was then probed with antibody (Boehringer Mannheim) specific for PARP. This antibody recognizes both the 116 kDa full length PARP and the 83 kDa cleaved product. […] The BT20 cells treated with DMSO for the same amount of time also had no activation of the apoptotic pathway.

[15] = test system: HFL-1 cells; assay: Induction of apoptosis: PARP cleavage Western blot, HFL-1; format: cell-based, human; conditions: 20 μM, 96 hours
Description: as §3

[16] = test system: H157; assay: GI50 growth inhibition, H157; format: cell-based; conditions: result in words
Procedure: The effect of the N-(aryl)-2-arylethenesulfonamides on normal fibroblasts and on tumor cells was determined by the assay described by Latham et al, Oncogene 12:827-837 (1996). Normal diploid lung human fibroblasts (HFL-1) or tumor cells (prostate, colorectal, breast, glial, pancreatic ovarian or leukemic) were plated in 6-well dishes at a cell density of 1.0×10^5 cells per 35-mm^2 well. The plated cells were treated 24 hours later with various concentrations of N-(aryl)-2-arylethenesulfonamide dissolved in dimethyl sulfoxide (DMSO). The total number of viable cells was determined 96 hours later by trypsinizing the wells and counting the number of viable cells, as determined by trypan blue exclusion, using a hemacytometer. Each compound tested (Exs. 1-17) inhibited cell proliferation when tested at a concentration of 30 micromolar. […]
as §2, with “1).” for “1). The GI50 (the concentration of drug resulting in 50% net loss of growth inhibition) was determined as 10 μM.”
The GI50 of (E)-4-methoxystyryl-N-3-fluoro-4-methoxyphenyl sulfonamide was determined for the following cell lines: BT20, DU145, H157 and DLD-1.

| GI50 ([1]; Homo sapiens, DU-145, DU145, Prostate) [µM] | GI50 [2] [µM] | GI50 [3] [µM] | GI50 ([4]; Homo sapiens, DLD-1, Colo-rectal) [µM] | GI50 [5] [µM] | GI50 [6] [µM] | GI50 ([7]; Homo sapiens, BT-20 (BT2O), Breast) [µM] | GI50 [9] [µM] | GI50 [10] [µM] | GI50 compared with (E)-4-methoxystyryl-N-4-fluorophenyl sulfonamide ([1]; DU145, result in words) | GI50 compared with (E)-4-methoxystyryl-N-4-fluorophenyl sulfonamide ([4]; DLD-1, result in words) | GI50 compared with (E)-4-methoxystyryl-N-4-fluorophenyl sulfonamide ([7]; BT20, result in words) | GI50 compared with (E)-4-methoxystyryl-N-4-fluorophenyl sulfonamide [16] | SMILES | GI50 [8] [µM] | GI50 [11] [µM] | GI50 [12] [µM] | GI50 [13] [µM] | PARP cleavage (83 kDa product, marker for apoptosis) [14] | PARP cleavage (83 kDa product, marker for apoptosis) [15] |
| --- | --- | --- | --- | --- | --- | --- | --- | --- | --- | --- | --- | --- | --- | --- | --- | --- | --- | --- | --- |
| 10 | 20 | 20 | 15 | 20 | 5 | 10 | 20 | 7 |  |  |  |  | COc1ccc(/C=C/S(=O)(=O)Nc2ccc(F)cc2)cc1 [Example 4, (E)-4-methoxystyryl-N-4-fluorophenyl sulfonamide] | 30 | 15 | 30 | 50 | presence of the 83 kDa PARP cleavage product | no cleavage of the full length PARP |
|  |  |  |  |  |  |  |  |  | in essential agreement | in essential agreement | in essential agreement | in essential agreement | COc1ccc(/C=C/S(=O)(=O)Nc2ccc(OC)c(F)c2)cc1 [Example 5, (E)-4-methoxystyryl-N-3-fluoro4-methoxyphenyl sulfonamide] |  |  |  |  |  |  |
